Data set [1] relates to HBV replication in HepG2.2.15 cells. Put plainly: Anti-HBV activity in vitro in HepG2.2.15 cells (extracellular HBV DNA by qPCR). Format: cell-based. As to conditions: Hepatitis B virus, HepG2.2.15, Anti-HBV activity in HepG2.2.15 cells; read-out: EC50. An outline of the steps:
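Constitutively HBV-producing HepG2.2.15 cells were seeded overnight at 37 °C, then treated with half-log serial dilutions of compound (0.5% DMSO final) for five days. Supernatant HBV DNA was extracted and quantified by qPCR; EC50 is the concentration inhibiting HBV replication by 50%.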

The nature of data set [2]: Cytotoxicity (CCK-8 cell viability) and selectivity index. It is filed as cell-based, human. As to conditions: human, HepDE19 cells; cytotoxicity, concentration resulting in death of 50% of host cells. An excerpt:
(§1) HepG2.2.15 and HepDE19 are stably-transfected cell lines containing the HBV genome. Both cell lines are derived from the hepatoblastoma cell line Hep G2 (American Type Culture Collection, ATCC® HB-8065™) by the published procedures described in references: M A Selles et al. Proc. Natl. Acad. Sci. USA 1987, 84, 1005-1009 and H Guo et al. Journal of Virology 2007, 81, 12472-12484, respectively. Both cell lines were maintained in Dulbecco's modified Eagle's medium (DMEM)-F12 medium supplemented with 10% fetal bovine serum, 100 U/mL penicillin, 100 μg/mL streptomycin, and 0.5 mg/mL of G418.
(§2) In a cell culture model, apparent antiviral activity of a compound can be the result of host cell death after exposure to the compound. To determine whether the anti-HBV effect of a test compound is due to cytotoxicity, HepDE19 cells were seeded into 96-well plates (5×10^3 cells per well) and treated with compounds as described above for EC50 determination. Five days after treatment, cell viability was measured by addition of 20 μL of CCK-8 reagent. Two hours after incubation at 37° C., the absorbance at wavelengths of 450 nm and 630 nm (OD450 and OD630) was recorded by a plate reader. The concentration results in the death of 50% of the host cells (CC50) of each compound was determined (See Table 5).

For another data set, the system named is HepDE19 cells. The data set is described as above. It is filed as cell-based, human. As to conditions: CC50 value/EC50 value.
Excerpt: as §1, §2

Data set [3] is described as follows: Human microsomal clearance assay. Format: in vitro ADME. Particulars: human, 1 μM, pH 7.4. In short, it runs like this: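 Liver microsomes (0.5 mg/mL protein) were incubated with 1 μM compound at 37 °C, pH 7.4 phosphate, with an NADPH-regenerating system. Samples at 0-30 min were quenched and measured by LC-MS/MS for parent loss. No-NADPH controls were included.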

Data set [4] in a line: Lyophilisation solubility assay (Lysa). It is filed as physicochemical. As to conditions: thermodynamic from solid. An outline of the steps: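 DMSO was evaporated from 10 mM stocks, and residues were taken up in 0.05 M phosphate buffer pH 6.5, stirred 1 h, shaken 2 h and left overnight. Filtrates were quantified by UV or HPLC-UV against a four-point calibration, in duplicate. Values are in μg/ml, with a lower-bound value when >80% dissolved.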

Values after ≈ are worked out from the molar mass of the structure shown. Read-outs that look alike come from different tables or passages of the source.

For `COC(=O)C1=C(CN2[C@@H]3C[C@@H](CC(=O)O)C[C@H]2C(F)(F)C3)NC(c2nccs2)=N[C@H]1c1ccc(F)cc1Cl` [Example 109, 2-[(1R,3R,5S)-8-[[(4R)-4-(2-chloro-4-fluoro-phenyl)-5-methoxycarbonyl-2-thiazol-2-yl-1,4-dihydropyrimidin-6-yl]methyl]-6,6-difluoro-8-azabicyclo[3.2.1]octan-3-yl]acetic acid], in data set [1], the EC50 (in general, the concentration that produces a half-maximal response) was 1.7 nM. The CC50 (commonly the concentration giving 50% cytotoxicity) at 5 days in data set [2] was > 100000 nM. In addition, the “Selectivity index (CC50/EC50)” value in the data set with HepDE19 cells is recorded as >58824. This compound also returned a CLh in data set [3] of 7.2 mL/min/kg. Moreover, the solubility thermodynamic in data set [4] (pH 6.5, aqueous buffer) was found to be 107 µg/mL (≈ 188 µM).
For `COC(=O)C1=C(CN2[C@@H]3COC[C@H]2C[C@H](CC(=O)O)C3)NC(c2nccs2)=N[C@H]1c1cccc(F)c1Cl` [Example 59, Exo-2-[(1S,5R)-9-[[(4R)-4-(2-chloro-3-fluoro-phenyl)-5-methoxycarbonyl-2-thiazol-2-yl-1,4-dihydropyrimidin-6-yl]methyl]-3-oxa-9-azabicyclo[3.3.1]nonan-7-yl]acetic acid], in that order: 15.6 nM, > 100000 nM, >6410, 2.1 mL/min/kg and > 732 µg/mL.
On to `COC(=O)C1=C(CN2[C@H]3COC[C@@H]2[C@H](CC(=O)O)C3)NC(c2nccs2)=N[C@H]1c1ccc(F)cc1Br` [Example 64, 2-[(1R,5S,6S)-8-[[(4R)-4-(2-bromo-4-fluoro-phenyl)-5-methoxycarbonyl-2-thiazol-2-yl-1,4-dihydropyrimidin-6-yl]methyl]-3-oxa-8-azabicyclo[3.2.1]octan-6-yl]acetic acid], for which the EC50 in data set [1] amounted to 16.6 nM. Also, the CC50 at 5 days in data set [2] was > 100000 nM. Further, in the data set on HepDE19 cells, the “Selectivity index (CC50/EC50)” value is reported as >6024. Further, the CLh in data set [3] turned out to be 2.6 mL/min/kg. In data set [4] (pH 6.5, aqueous buffer), this compound showed a solubility thermodynamic of 660 µg/mL (≈ 1140 µM).
For `COC(=O)C1=C(CN2C3COCC2CC(CC(=O)O)C3)NC(c2nccs2)=N[C@H]1c1ccc(F)cc1Br` (stereo partly drawn) [Example 28, (R)-4-(2-Bromo-4-fluoro-phenyl)-6-(7-carboxymethyl-3-oxa-9-aza-bicyclo[3.3.1]non-9-ylmethyl)-2-thiazol-2-yl-1,4-dihydro-pyrimidine-5-carboxylic acid methyl ester], in that order: 15 nM, > 100000 nM, >9804, 0.6 mL/min/kg and > 655 µg/mL.
As to `COC(=O)C1=C(CN2C3COCC2CC(O)(CO)C3)NC(c2nccs2)=N[C@H]1c1ccc(F)cc1Cl` (stereo partly drawn) [Example 10, (R)-4-(2-Chloro-4-fluoro-phenyl)-6-(7-hydroxy-7-hydroxymethyl-3-oxa-9-aza-bicyclo[3.3.1]non-9-ylmethyl)-2-thiazol-2-yl-1,4-dihydro-pyrimidine-5-carboxylic acid methyl ester], in data set [1], the EC50 came out at 8.8 nM. Moreover, the CC50 at 5 days in data set [2] was > 100000 nM. Moreover, the “Selectivity index (CC50/EC50)” value in the data set on HepDE19 cells is listed as >11364. In data set [4] (pH 6.5, aqueous buffer), this compound displayed a solubility thermodynamic of 435 µg/mL (≈ 810 µM).
For `CCOC(=O)C1=C(CN2[C@@H]3COC[C@H]2C[C@H](CC(=O)O)C3)NC(c2nccs2)=N[C@H]1c1ccccc1Cl` [Example 72, Exo-2-[(1S,5R)-9-[[(4R)-4-(2-chlorophenyl)-5-ethoxycarbonyl-2-thiazol-2-yl-1,4-dihydropyrimidin-6-yl]methyl]-3-oxa-9-azabicyclo[3.3.1]nonan-7-yl]acetic acid], in data set [1], the EC50 is 13.2 nM. Moreover, the CC50 at 5 days in data set [2] was > 100000 nM. Besides, in the data set on HepDE19 cells, the “Selectivity index (CC50/EC50)” value is >7576. In addition, in data set [3], the CLh amounted to 2.8 mL/min/kg. Besides, the solubility thermodynamic in data set [4] (pH 6.5, aqueous buffer) came to 640 µg/mL (≈ 1170 µM).
As to `COC(=O)C1=C(CN2CC3(CNC(C)=O)CC2CO3)NC(c2nccs2)=N[C@H]1c1ccc(F)cc1Cl` (stereo partly drawn) [Example 145, Methyl (4R)-6-[[4-(acetamidomethyl)-5-oxa-2-azabicyclo[2.2.1]heptan-2-yl]methyl]-4-(2-chloro-4-fluoro-phenyl)-2-thiazol-2-yl-1,4-dihydropyrimidine-5-carboxylate], the EC50 in data set [1] was found to be 17 nM. Besides, the CC50 at 5 days in data set [2] was > 100000 nM. Moreover, in the data set with HepDE19 cells, the “Selectivity index (CC50/EC50)” value is on record as >5882. In addition, the solubility thermodynamic in data set [4] (aqueous buffer, 0.05 M phosphate buffer (pH 6.5), reported as bigger than the value if more than 80% of the sample is in solution, read-out: Lysa) came out at 585 µg/mL (≈ 1100 µM).
Take `COC(=O)C1=C(CN2C3CC(F)(F)C2C[C@@](O)(CC(=O)O)C3)NC(c2nccs2)=N[C@H]1c1ccc(F)cc1Cl` (single isomer, unassigned) [Example 116]: the EC50 in data set [1] worked out at 7.3 nM. In data set [2], the CC50 at 5 days is > 100000 nM. Moreover, the “Selectivity index (CC50/EC50)” value in the data set with HepDE19 cells is recorded as >13699. Besides, in data set [3], the CLh amounted to 2.6 mL/min/kg. For the same compound, in data set [4] (pH 6.5, aqueous buffer), the solubility thermodynamic was determined as 495 µg/mL (≈ 846 µM).
On to `CCOC(=O)C1=C(CN2C3COCC2C(F)(F)[C@H](CC(=O)O)C3)NC(c2nccs2)=N[C@H]1c1cccc(F)c1Cl` (stereo partly drawn) [Example 130, 2-[(7S)-9-[[(4R)-4-(2-chloro-3-fluoro-phenyl)-5-ethoxycarbonyl-2-thiazol-2-yl-1,4-dihydropyrimidin-6-yl]methyl]-6,6-difluoro-3-oxa-9-azabicyclo[3.3.1]nonan-7-yl]acetic acid], for which, in data set [1], the EC50 was 6.4 nM. This compound returned a CC50 at 5 days in data set [2] of 69000 nM. Also, in the data set with HepDE19 cells, the “Selectivity index (CC50/EC50)” value turned out to be 10830. Further, the CLh in data set [3] was 5.0 mL/min/kg. Also, in data set [4] (pH 6.5, aqueous buffer), the solubility thermodynamic is 219 µg/mL (≈ 366 µM).
In the same order, the values of `CCOC(=O)C1=C(CN2C3COCC2C(C(=O)O)C3)NC(c2nccs2)=N[C@H]1c1ccc(F)cc1Br` (stereo partly drawn) [Example 52, 8-[[(4R)-4-(2-bromo-4-fluoro-phenyl)-5-ethoxycarbonyl-2-thiazol-2-yl-1,4-dihydropyrimidin-6-yl]methyl]-3-oxa-8-azabicyclo[3.2.1]octane-6-carboxylic acid] are 17.9 nM, > 100000 nM, >5587, 2.7 mL/min/kg and > 630 µg/mL.
Turning to `COC(=O)C1=C(CN2[C@@H]3COC[C@H]2C[C@H](CC(=O)O)C3)NC(c2nccs2)=N[C@H]1c1cccc(F)c1Br` [Example 74, Exo-2-[(1S,5R)-9-[[(4R)-4-(2-bromo-3-fluoro-phenyl)-5-methoxycarbonyl-2-thiazol-2-yl-1,4-dihydropyrimidin-6-yl]methyl]-3-oxa-9-azabicyclo[3.3.1]nonan-7-yl]acetic acid], the EC50 in data set [1] was determined as 10.9 nM. Further, the CC50 at 5 days in data set [2] is > 100000 nM. In addition, the “Selectivity index (CC50/EC50)” value in the data set on HepDE19 cells is given as >9174. The compound further showed a CLh in data set [3] of 0.5 mL/min/kg. The solubility thermodynamic in data set [4] (pH 6.5, aqueous buffer) was > 621 µg/mL.
In the same order, the values of `CCOC(=O)C1=C(CN2C3CCC2(C(=O)O)COC3)NC(c2nccs2)=N[C@H]1c1cccc(F)c1Cl` (stereo partly drawn) [Example 83, 8-[[(4R)-4-(2-chloro-3-fluoro-phenyl)-5-ethoxycarbonyl-2-thiazol-2-yl-1,4-dihydropyrimidin-6-yl]methyl]-3-oxa-8-azabicyclo[3.2.1]octane-5-carboxylic acid] are 8.6 nM, 65000 nM, 7558, 1.6 mL/min/kg and 564 µg/mL (≈ 1050 µM).
In the case of `COC(=O)C1=C(CN2C3COCC2c2c(n(C)[nH]c2=O)C3)NC(c2nccs2)=N[C@H]1c1ccc(F)cc1Cl` (stereo partly drawn) [Example 33, (R)-4-(2-Chloro-4-fluoro-phenyl)-6-(5-methyl-3-oxo-10-oxa-4,5,12-triaza-tricyclo[6.3.1.0*2,6*]dodec-2(6)-en-12-ylmethyl)-2-thiazol-2-yl-1,4-dihydro-pyrimidine-5-carboxylic acid methyl ester], the EC50 in data set [1] was determined as 11 nM. Besides, in data set [2], the CC50 at 5 days was > 100000 nM. The “Selectivity index (CC50/EC50)” value in the data set with HepDE19 cells is >9091. In addition, the solubility thermodynamic in data set [4] (pH 6.5, aqueous buffer) was 100 µg/mL (≈ 179 µM).

Values taken from patent US9266904B2, “6-bridged heteroaryldihydropyrimidines for the treatment and prophylaxis of hepatitis B virus infection” (priority 2013, dated 2016).
